# Legend:
# Boophilus microplus = Boophilus microplus test (BOOPMI injection); assay type: in vivo; settings: Rhipicephalus microplus, 168 h; 20 μg/animal, injection into abdomen, after 7 days; read-out: activity (no fertile eggs laid)
# Experimental: Solvent: Dimethyl Sulphoxide An appropriate preparation of active compound is prepared by mixing 10 mg of active compound with 0.5 ml of solvent and diluting the concentrate with solvent to the desired concentration. The solution of active compound is injected into the abdomen (Boophilus microplus) and the animals are transferred into dishes and kept in a controlled atmosphere. The activity is assessed on the basis of deposition of fertile eggs. After 7 days, the effect in % is determined. Here, 100% means that none of the ticks has laid fertile eggs.
# [1] = test system: greenhouse red spidermite (Tetranychus urticae); test: Tetranychus test; OP resistant (TETRUR spray treatment), Example 3; assay type: in vivo; settings: foliar, 144 h, spray on bean leaf discs, after 6 days, read-out: effect (mites killed)
# Experimental: (§1) Solvents: 78.0 parts by weight of acetone • • 1.5 parts by weight of dimethylformamide Emulsifier: 0.5 part by weight of alkylaryl polyglycol ether An appropriate preparation of active compound is prepared by mixing 1 part by weight of active compound with the stated amounts of solvent and emulsifier and diluting the concentrate with emulsifier-containing water to the desired concentration. Leaf discs of bean (Phaseolus vulgaris) infested by all stages of the greenhouse red spidermite (Tetranychus urticae) are sprayed with a preparation of active compound at the desired concentration. After 6 days, the effect in % is determined. Here, 100% means that all of the mites have been killed; 0% means that no mites have been killed.
# [2] = log P by HPLC on reversed-phase C18, LC-MS, pH 2.7, formic acid (HCOOH); assay type: physicochemical; settings: reversed-phase C18 HPLC column; HPLC C18, pH 2.7, 0.1% aqueous formic acid/acetonitrile
# Experimental: (§2) The log P values reported in the table above and in the preparation examples were determined in accordance with EEC Directive 79/831 Annex V.A8 by HPLC (High Performance Liquid Chromatography) on reversed-phase columns (C18), with the following methods: ^[b] The determination is made by LC-MS in the acid range at pH 2.7 with 0.1% aqueous formic acid and acetonitrile (containing 0.1% formic acid) as eluents; linear gradient from 10% acetonitrile to 95% acetonitrile. Calibration took place with unbranched alkan-2-ones (having 3 to 16 carbon atoms) of known log P values (log P values determined from the retention times by linear interpolation between two successive alkanones).
# [3] = log P by HPLC on reversed-phase C18, pH 2.3, phosphoric acid (H3PO4); assay type: physicochemical; settings: reversed-phase C18 HPLC column; HPLC C18, pH 2.3, 0.1% aqueous phosphoric acid/acetonitrile
# Experimental: as §2, with “^[a]” for “^[b]”, “made” for “made by LC-MS”, “2.3” for “2.7”, “phosphoric” for “formic”, “acetonitrile” for “acetonitrile (containing 0.1% formic acid)”
# Meloidogyne incognita = Meloidogyne incognita test (MELGIN); assay type: in vivo; settings: 20 ppm, lettuce in sand, after 14 days
# Experimental: Solvents: 78.0 parts by weight of acetone • • 1.5 parts by weight of dimethylformamide Emulsifier: 0.5 part by weight of alkylaryl polyglycol ether An appropriate preparation of active compound is prepared by mixing 1 part by weight of active compound with the stated amounts of solvent and emulsifier and diluting the concentrate with water to the desired concentration. Pots are filled with sand, solution of active compound, meloidogyne incognita egg/larvae suspension, and lettuce seeds. The lettuce seeds germinate and the plants develop. On the roots, the galls develop. After 14 days, the nematicidal effect is determined from the gall formation, in %. Here, 100% means that no galls were found; 0% means that the number of galls on the treated plants corresponds to that for the untreated control.
# [4] = test system: greenhouse red spidermite (Tetranychus urticae); test: Tetranychus test; OP resistant (TETRUR spray treatment), Example 5, comparison with prior art; assay type: in vivo; settings: 20 g/ha, 6d
# Experimental: as §1, with “the desired time,” for “6 days,”
# [5] = test system: larvae of the mustard beetle (Phaedon cochleariae); test: Phaedon test (PHAECO spray treatment); assay type: in vivo; settings: foliar, 168 h, spray on Chinese cabbage leaf discs, after 7 days, read-out: effect (beetle larvae killed)
# Experimental: Solvents: 78.0 parts by weight of acetone • • 1.5 parts by weight of dimethylformamide Emulsifier: 0.5 part by weight of alkylaryl polyglycol ether An appropriate preparation of active compound is prepared by mixing 1 part by weight of active compound with the stated amounts of solvent and emulsifier and diluting the concentrate with emulsifier-containing water to the desired concentration. Leaf discs of Chinese cabbage (Brassica pekinensis) are sprayed with a preparation of active compound at the desired concentration and, after they have dried, are populated with larvae of the mustard beetle (Phaedon cochleariae). After 7 days, the effect in % is determined. Here, 100% means that all of the beetle larvae have been killed; 0% means that no beetle larvae have been killed.
# [6] = log P by HPLC on reversed-phase C18, eluent variant not stated; assay type: physicochemical; settings: reversed-phase C18 HPLC column
# Experimental: as §2, with “methods:” for “methods: ^[b] The determination is made by LC-MS in the acid range at pH 2.7 with 0.1% aqueous formic acid and acetonitrile (containing 0.1% formic acid) as eluents; linear gradient from 10% acetonitrile to 95% acetonitrile.”
SMILES,chromatographic logP [2],pest or weed control at 0.02 mg (Boophilus microplus) [%],pest or weed control at 100 g/ha [1] [%],pest or weed control at 500 g/ha [5] [%],further results
Cc1cc(C)c(-n2cnc(C(F)F)n2)cc1SCC(F)F [I-A-1],3.02,100,100,,chromatographic logP [3]: 3.06
Cc1ccc(-n2cnc(C(F)F)n2)cc1SCC(F)(F)F [I-A-5],3.24,100,100,100,
Cc1cc(F)c(-n2cnc(C(F)F)n2)cc1SCC(F)F [I-A-6],2.94,,100,100,
Cc1cc(C)c(-n2cnc(C(F)(F)C(F)(F)F)n2)cc1SCC(F)F [I-A-7],4.22,100,100,,
FC(F)c1ncn(-c2ccc(Cl)c(SCC(F)(F)F)c2)n1 [I-A-9],3.28,100,100,100,nematicidal effect (gall formation) (Meloidogyne incognita): 100%
Cc1cc(C)c([S+]([O-])CC2CC2)cc1-n1cnc(C(F)(F)C(F)(F)F)n1 (centres unmarked) [I-A-11],3.11,100,100,,
[O-][S+](CC(F)(F)F)c1cc(-n2cnc(C(F)F)n2)ccc1Cl (centres unmarked) [I-A-27],2.39,100,100,100,nematicidal effect (gall formation) (Meloidogyne incognita): 100%
Cc1cc(F)c(-n2cnc(C(F)F)n2)cc1SCC(F)(F)F [I-A-30],3.28,,100,100,nematicidal effect (gall formation) (Meloidogyne incognita): 90%
Cc1cc(F)c(-n2cnc(C(F)F)n2)cc1SCC1CC1 [I-A-31],3.81,,100,100,
Cc1cc(C)c(-n2cnc(C(F)(F)C(F)(F)F)n2)cc1SCC(C)C [I-A-34],5.58,,100,,
CSc1cc(-n2cnc(C(F)F)n2)c(F)cc1C [I-A-38],2.93,,,,pest or weed control at 500 g/ha [1]: 100%
Cc1cc(C)c([S+]([O-])CC(C)C)cc1-n1cnc(C(F)(F)C(F)(F)F)n1 (centres unmarked) [I-A-39],3.46,100,100,,
"Cc1ccc(-n2cnc(C(F)F)n2)c(C)c1 [IV-A-2, 3-(Difluoromethyl)-1-(2,4-dimethylphenyl)-1H-1,2,4-triazole]",2.43,,,,pest or weed control at 500 g/ha [1]: 80%
Cc1ccc(-n2cnc(C(F)F)n2)c(F)c1 [IV-A-3],2.31,,,,pest or weed control at 500 g/ha [1]: 90%
"Cc1ccc(NNC(=O)C(F)F)c(C)c1 [N′-(2,4-Dimethylphenyl)-2,2-difluoroacetohydrazide]",,,,,chromatographic logP [6]: 1.8
Cc1ccc(NNC(=O)C(F)(F)C(F)(F)Cl)c(C)c1 [V-1],2.96,,,,pest or weed control at 500 g/ha [1]: 90%
"Cc1cc(C)c(-n2cnc(C(F)(F)F)n2)cc1SCC(F)(F)F [VI-297, reference compound]",,,,,% effect after application [4]: 70 6d %

# Now from value to compound, other results behind:
chromatographic logP [2],SMILES,pest or weed control at 0.02 mg (Boophilus microplus) [%],pest or weed control at 100 g/ha [1] [%],pest or weed control at 500 g/ha [5] [%],further results
3.33,"Cc1cc(C)c(-n2cnc(C(F)F)n2)cc1SCC(F)(F)F [I-A-2, 3-(Difluoromethyl)-1-{2,4-dimethyl-5-[(2,2,2-trifluoroethyl)sulphanyl]phenyl}-1H-1,2,4-triazole]",100,,,pest or weed control at 500 g/ha [1]: 100%; nematicidal effect (gall formation) (Meloidogyne incognita): 100%; % effect after application [4]: 100 6d %
1.9,Cc1cc(C)c([S+]([O-])CC(F)F)cc1-n1cnc(C(F)F)n1 (centres unmarked) [I-A-3],100,100,,
2.19,"Cc1cc(C)c([S+]([O-])CC(F)(F)F)cc1-n1cnc(C(F)F)n1 (centres unmarked) [I-A-4, 3-(Difluoromethyl)-1-{2,4-dimethyl-5-[(2,2,2-trifluoroethyl)sulphinyl]phenyl}-1H-1,2,4-triazole]",100,100,,nematicidal effect (gall formation) (Meloidogyne incognita): 100%
2.95,Cc1cc(C)c([S+]([O-])CC(F)F)cc1-n1cnc(C(F)(F)C(F)(F)F)n1 (centres unmarked) [I-A-8],100,100,,
3.27,Cc1cc(C)c([S+]([O-])CC(F)(F)F)cc1-n1cnc(C(F)(F)C(F)(F)F)n1 (centres unmarked) [I-A-10],100,,100,pest or weed control at 500 g/ha [1]: 100%
3.02,Cc1cc(C)c([S+]([O-])CC(F)F)cc1-n1cnc(C(F)(F)C(F)(F)Cl)n1 (centres unmarked) [I-A-12],100,100,100,
2.12,Cc1cc(F)c(-n2cnc(C(F)F)n2)cc1[S+]([O-])CC(F)(F)F (centres unmarked) [I-A-15],,,100,pest or weed control at 500 g/ha [1]: 100%; nematicidal effect (gall formation) (Meloidogyne incognita): 90%
2.1,Cc1ccc(-n2cnc(C(F)F)n2)cc1[S+]([O-])CC(F)(F)F (centres unmarked) [I-A-16],,100,100,nematicidal effect (gall formation) (Meloidogyne incognita): 100%
2.28,Cc1cc(C)c([S+]([O-])CCC(F)(F)F)cc1-n1cnc(C(F)F)n1 (centres unmarked) [I-A-17],100,100,,
1.81,Cc1cc(F)c(-n2cnc(C(F)F)n2)cc1[S+]([O-])CC(F)F (centres unmarked) [I-A-23],,,100,pest or weed control at 500 g/ha [1]: 100%
2.05,Cc1cc(C)c([S+]([O-])CC2CC2)cc1-n1cnc(C(F)F)n1 (centres unmarked) [I-A-33],,,,pest or weed control at 500 g/ha [1]: 100%
2.72,Cc1cc(C)c([S+]([O-])CC(F)(F)C(F)(F)F)cc1-n1cnc(C(F)F)n1 (centres unmarked) [I-A-35],,100,,
3.68,Cc1cc(C)c(-n2cnc(C(F)F)n2)cc1SCCC(F)(F)F [I-A-36],100,100,,
3.86,Cc1cc(C)c(-n2cnc(C(F)F)n2)cc1SCC(F)(F)C(F)(F)F [I-A-37],,100,,

# Reference: patent publication US8632767B2, “3-[1-(3-haloalkyl)triazolyl]phenyl sulphide derivatives as acaricides and insecticides” (Bayer Intellectual Property GmbH, priority 2009, dated 2014)
